This note sets out measurements from ChEMBL document CHEMBL4052667 (Bioorg Med Chem, 2017).

Activity calls are given as the source filed them. The calls are words filed in the database; no cut-off is given here.

The subject of one test is HCC827. Description: Antiproliferative activity against human HCC827 cells after 72 hrs by MTT assay. It is filed as functional, cell-based. The note with it: HCC827, 72 h. On the technique in general: Tetrazolium assays rely on reduction of a dye to a coloured formazan, in cell work by metabolically active cells.
A further test deals with Raji. Description: Potency index, ratio of SAHA IC50 to compound IC50 for human Raji cells. In kind it is functional.
The subject of test [1] is MDA-MB-231. Description: Induction of apoptosis in human MDA-MB-231 cells assessed as viable cells at 2.5 uM after 48 hrs by Annexin V-FITC/propidium iodide staining based flow cytometry (reference value: 94.9%). In kind it is functional. The note with it: MDA-MB-231, 48 h, read-out: Activity. On the technique in general: In flow cytometry, cells or beads pass a laser one at a time.

The species entered for test [2] is Homo sapiens. Description: Inhibition of HDAC in human MDA-MB-231 cells assessed as increase in hyperacetylation of histone H4K8 level up to 10 uM after 24 hrs by Western blot analysis. It is filed as cell-based. For orientation: Immunoblotting shows a protein as a band on a membrane.
In test [3] the test system is MDA-MB-231. Description: Induction of apoptosis in human MDA-MB-231 cells assessed as early apoptotic cells at 5 uM after 48 hrs by Annexin V-FITC/propidium iodide staining based flow cytometry (reference value: 1.27%). It is filed as functional.
For test [4], the system named is MDA-MB-231. The test can be described thus: Antiproliferative activity against human MDA-MB-231 cells after 72 hrs by MTT assay. In kind it is functional, cell-based. The note with it: MDA-MB-231, 72 h.
The test system of the next test is MCF7. Description: Antiproliferative activity against human MCF7 cells after 72 hrs by MTT assay. It is filed as functional, cell-based. The following applies: MCF7, 72 h.
In test [5] the test system is MDA-MB-231. The test can be described thus: Induction of apoptosis in human MDA-MB-231 cells assessed as viable cells at 5 uM after 48 hrs by Annexin V-FITC/propidium iodide staining based flow cytometry (reference value: 94.9%). In kind it is functional. The following applies: MDA-MB-231, 48 h, read-out: Activity.
Test [6] relates to MDA-MB-231. The test can be described thus: Induction of apoptosis in human MDA-MB-231 cells assessed as increase in cleave PARP level measured after 24 hrs by Western blot analysis. In kind it is functional, cell-based.
For test [7], the system named is MDA-MB-231. Description: Induction of apoptosis in human MDA-MB-231 cells assessed as late apoptotic cells at 5 uM after 48 hrs by Annexin V-FITC/propidium iodide staining based flow cytometry (reference value: 3.82%). In kind it is functional.
For test [8], the system named is MDA-MB-231. The test can be described thus: Decrease in RAd51 protein level in human MDA-MB-231 cells up to 10 uM measured after 24 hrs by Western blot analysis. It is filed as functional, cell-based.
The species entered for test [9] is Homo sapiens. The test can be described thus: Inhibition of HDAC in human MDA-MB-231 cells assessed as increase in acetylation of histone H3K9 level up to 10 uM after 24 hrs by Western blot analysis. In kind it is cell-based.
Test [10] deals with Poly [ADP-ribose] polymerase 1 (Homo sapiens, UniProt P09874). Description: Inhibition of recombinant full length human N-terminal GST-tagged PARP1 expressed in baculovirus infected Sf9 cells using biotinylated substrate after 1 hr by UV/Vis spectrophotometric analysis.
Chain of Poly [ADP-ribose] polymerase 1 (P09874 whole entry): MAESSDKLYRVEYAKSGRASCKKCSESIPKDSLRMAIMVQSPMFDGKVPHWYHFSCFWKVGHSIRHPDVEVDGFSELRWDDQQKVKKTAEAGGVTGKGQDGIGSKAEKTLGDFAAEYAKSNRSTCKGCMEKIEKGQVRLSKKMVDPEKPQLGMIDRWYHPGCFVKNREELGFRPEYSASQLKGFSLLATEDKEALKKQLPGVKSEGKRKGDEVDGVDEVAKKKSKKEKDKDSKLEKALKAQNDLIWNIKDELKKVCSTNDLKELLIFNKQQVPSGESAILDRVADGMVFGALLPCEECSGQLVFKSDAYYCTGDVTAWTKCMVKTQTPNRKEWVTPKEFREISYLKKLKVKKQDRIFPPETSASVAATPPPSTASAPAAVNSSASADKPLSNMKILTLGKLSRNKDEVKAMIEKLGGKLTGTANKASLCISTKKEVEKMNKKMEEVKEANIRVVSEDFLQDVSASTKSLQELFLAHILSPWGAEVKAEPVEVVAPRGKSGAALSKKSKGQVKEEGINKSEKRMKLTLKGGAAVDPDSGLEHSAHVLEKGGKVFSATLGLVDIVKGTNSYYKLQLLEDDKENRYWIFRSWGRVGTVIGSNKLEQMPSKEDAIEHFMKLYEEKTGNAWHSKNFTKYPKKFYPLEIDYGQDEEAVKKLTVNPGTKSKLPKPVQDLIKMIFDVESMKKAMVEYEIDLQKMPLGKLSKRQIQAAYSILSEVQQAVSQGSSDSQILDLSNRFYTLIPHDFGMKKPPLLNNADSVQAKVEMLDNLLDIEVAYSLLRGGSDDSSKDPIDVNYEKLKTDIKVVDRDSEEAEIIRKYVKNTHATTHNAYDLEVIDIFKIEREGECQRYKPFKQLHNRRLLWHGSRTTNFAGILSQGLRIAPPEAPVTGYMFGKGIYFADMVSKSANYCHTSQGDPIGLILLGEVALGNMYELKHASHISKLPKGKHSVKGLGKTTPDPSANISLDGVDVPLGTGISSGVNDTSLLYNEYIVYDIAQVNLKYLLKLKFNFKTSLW
Test [11] has as its system MDA-MB-231. Description: Induction of apoptosis in human MDA-MB-231 cells assessed as increase in cleave caspase-9 level at 10 uM measured after 24 hrs by Western blot analysis. In kind it is functional, cell-based.
For test [12], the system named is MDA-MB-231. Description: Induction of apoptosis in human MDA-MB-231 cells assessed as increase in cleave caspase-3 level up to 10 uM measured after 24 hrs by Western blot analysis. In kind it is functional, cell-based.
For test [13], the system named is MDA-MB-231. Description: Induction of apoptosis in human MDA-MB-231 cells assessed as early apoptotic cells at 10 uM after 48 hrs by Annexin V-FITC/propidium iodide staining based flow cytometry (reference value: 1.27%). It is filed as functional.
In test [14] the test system is MDA-MB-231. Description: Induction of apoptosis in human MDA-MB-231 cells assessed as necrotic cells at 5 uM after 48 hrs by Annexin V-FITC/propidium iodide staining based flow cytometry (reference value: 0.024%). It is filed as functional.

On to `O=C(/C=C/c1ccc(CCNC(=O)c2cc(Cc3n[nH]c(=O)c4ccccc34)ccc2F)cc1)NO`, for which the IC50 came to 1790 nM in the test with HCC827, 1540 nM in the test with MDA-MB-231 [4], 3550 nM in the test on MCF7 and 68.2 nM in test [10]. For the same molecule, the “Ratio IC50” value in the test with Raji is 7. The viability at 2.5 µM with MDA-MB-231 [1] was 79.2%. Also, the inhibition entry in the test listed under Homo sapiens [2] and in the test filed under Homo sapiens [9] was “Active” each time. In addition, the Activity in the test with MDA-MB-231 [3] is 28.6%; with MDA-MB-231 [6], “Dose-dependent effect”; in the test with MDA-MB-231 [7], 33.5%; with MDA-MB-231 [13], 47%; in the test on MDA-MB-231 [14], 2.79%. Further, the viability at 5 µM in the test on MDA-MB-231 [5] is 35.1%. Also, the outcome with MDA-MB-231 [8], in the test with MDA-MB-231 [11] and with MDA-MB-231 [12] was Active.

In general, IC50 refers to the concentration at which inhibition is half-maximal.
